Where no end group is shown, it is not given here.
Columns and labels:
CRE-driven luciferase = assay: CRE-dependent luciferase reporter in HeLa and HeLa::TORC1-eGFP cells; type: cell-based; settings: 18 hours; for activation of CRE-driven luciferase in naïve HeLa cells: 5 uM ionomycin, 10 uM PMA
Excerpt: To determine the effect of TORC1 over-expression and localization on gene expression, CRE-dependent transcription is compared in untransfected HeLa cells and HeLa cells stably expressing TORC1-eGFP using a luciferase reporter containing a CRE-dependent promoter.

TORC2-eGFP = TORC2-eGFP nuclear translocation in HEK293 cells, fluorescence microscopy; type: cell-based, human; settings: for translocation of TORC2-eGFP to the nucleus: 45 min, 10 nM LMB, 10 uM ionomycin, or both
Procedure: (§1) HEK293 cells are transfected with either pCMV-TORC1-eGFP, pCMV-TORC2-eGFP or pCMV-TORC3-eGFP linearized with AseT restriction endonuclease and stable integrants are selected with 700 ug/ml geneticin generating a population of cells that express TORC-eGFP. These are referred to as 293hTORC1, 293hTORC2 or 293hTORC3 cells, respectively. All of the stable TORC-eGFP cell-lines are subjected to fluorescence activated cell sorting to remove non-fluorescing cells.
(§2) The localization of human TORC2 and TORC3 is also examined. Both HeLa cells and HEK293 cells are transfected with either pCMV-TORC2-eGFP or pCMV-TORC3-eGFP.
(§3) In order to assess this possibility, HeLa cells stably expressing TORC1-eGFP are exposed to either no treatment (FIG. 5, panel A), 50 uM forskolin and 100 uM IBMX (panel B), or 1 mM db-cAMP (panel C) for 2 hours. […] Similarly, HEK293 cells stably expressing TORC2-eGFP (FIG. 5, panels D and E) or TORC3-eGFP (panels F and G) are either untreated (panels D and F) or treated with 25 uM forskolin for 1 hour (panels E and G).

TORC3-eGFP = TORC3-eGFP nuclear translocation in HEK293 cells, fluorescence microscopy; type: cell-based, human; settings: for translocation of TORC3-eGFP to the nucleus: 45 min, 10 nM LMB, 10 uM ionomycin, or both
Procedure: as §1, §2, §3

TORC1-eGFP [1] = assay: TORC1-eGFP nuclear translocation in stably expressing HEK293 cells; type: cell-based, human; settings: stable HEK293; for translocation of TORC1-eGFP to the nucleus: 45 min, 10 nM LMB, 10 uM ionomycin, or both; for TORC1-eGFP fluorescence localization: 1 hr, 10 nM LMB alone, 160 nM isoproterenol alone, or isoproterenol plus LMB
Procedure: as §1
To assess whether TORC translocation is induced by stimulation of endogenous G-protein coupled receptors (GPCRs), HEK293 cells stably expressing various TORC-eGFP fusions are treated with isoproterenol, a β2-adrenergic receptor agonist, for 1 hr.

TORC1-eGFP [2] = assay: TORC1 (FLAG-TORC1 / TORC1-eGFP) nuclear translocation in HeLa cells, fluorescence microscopy; type: cell-based, human
Procedure: Generation of stable TORC-eGFP cell lines. HeLa cells are transfected with pCMV-TORC1-eGFP and stable integrants are selected with 700 ug/ml geneticin. A single colony that expressed TORC1-eGFP is isolated and expanded (HhTORC1eGFP cells). […]
HeLa cells are transfected with FLAG-TORC1 (FIG. 1, panels A and B) or TORC1-eGFP (panels C and D). Cells are either untreated (panels A and C) or treated with 10 nM leptomycin-B (LMB), a fungal inhibitor of CRM1 mediated nuclear export of proteins, for 90 min (panels B and D). FLAG-tagged protein is visualized by immunofluorescence while eGFP-tagged proteins are directly visualized by fluorescence. […] Since a variety of signal transduction proteins are regulated by either nuclear export or stimulus induced import, the localization of TORC1 is examined after treatment with LMB. […]

dTORC-eGFP = dTORC-eGFP translocation in Drosophila larval salivary glands; type: cell-based; settings: 5 uM ionomycin 1 hour; 100 uM db-cAMP 4 hours
Procedure: Drosophila Methods. The Gal4 responder construct, UAS-GFP-TORC, is created by PCR cloning the eGFP gene from the pEGFP—N1 vector (Clontech # 6085-1) and the dTORC gene from Drosophila genomic DNA into the pUAST vector (Brand and Perrimon, 1993). This construct is injected into Drosophila embryos by P-element germline transformation to create transgenic lines (Rubin and Spradling, 1982). To induce expression of the fusion protein, flies containing UAS-GFP-TORC are crossed to flies containing the HS-Gal4 construct obtained from the Bloomington Stock Center, University of Indiana, Bloomington, Ind. The larvae are heat-shocked at […] and salivary glands from late third instar larvae were dissected in PBS, placed in Sang M3 media (Sigma #S3652) containing various chemical treatments in a 96-well plate. The glands are visualized using the Nikon Eclipse TE2000-E fluorescent microscope. Images are taken at a 100× magnification.
A fusion of eGFP and the Drosophila TORC (dTORC) protein is generated. […] Salivary glands dissected from transgenic larvae expressing the dTORC fusion protein are examined by microscopy. dTORC-eGFP is localized in the cytoplasm in all of the cells in the gland (FIG. 17, panels A and D). […] Thus, the localization of TORC in Drosophila is regulated by cAMP and calcium, just as in human cells. […]

CRE-luciferase [3] = assay: CRE-luciferase reporter with dominant negative TORC1(1-44)-eGFP in HeLa cells; type: cell-based
Excerpt: The siRNA results (Example 12) are complicated by the need to use multiple siRNAs and to block multiple TORCs. In order to efficiently block activity of all TORC proteins more readily, a dominant interfering TORC protein is designed which fuses the highly conserved 44 amino-acid CREB-binding domain of TORC1 to eGFP (T1-44eGFP). To block activity of all TORC proteins efficiently, a dominant interfering protein that should specifically block the ability of all TORC's to interact with CREB1 is designed. The CREB1 interaction domain of TORC proteins is present in the first 44 amino acids of TORC1. The N-terminal 44 amino acids, representing the first exon of the TORC1 gene, is nearly 100% conserved in virtually all mammalian, C. elegans and Drosophila TORC proteins, yet has virtually no homology or similarity to any other proteins (Tourgenko et al., 2003). […] HeLa cells are transfected with either the eGFP control or TORC1(1-44)-eGFP with either CRE-luciferase (FIG. 16, panel A) or NFKB-luciferase (panel B) prior to stimulation with 50 uM forskolin/100 uM IBMX or 5 uM ionomycin. In panel C, HEK293 cells are transiently transfected with CRE-luciferase and the β2-adrenergic receptor (β2AR) in combination with either the empty CMV vector, eGFP, or TORC1(1-44)-eGFP fusion and exposed to isoproterenol for 18 hours. […] Thus blockade of TORC function also prevents CRE-activation through a Gs-linked GPCR using isoproterenol.

NF-kappaB reporter = assay: NFKB-luciferase reporter with dominant negative TORC1(1-44)-eGFP in HeLa cells; type: cell-based
Excerpt: (§4) The siRNA results (Example 12) are complicated by the need to use multiple siRNAs and to block multiple TORCs. In order to efficiently block activity of all TORC proteins more readily, a dominant interfering TORC protein is designed which fuses the highly conserved 44 amino-acid CREB-binding domain of TORC1 to eGFP (T1-44eGFP). To block activity of all TORC proteins efficiently, a dominant interfering protein that should specifically block the ability of all TORC's to interact with CREB1 is designed. The CREB1 interaction domain of TORC proteins is present in the first 44 amino acids of TORC1. The N-terminal 44 amino acids, representing the first exon of the TORC1 gene, is nearly 100% conserved in virtually all mammalian, C. elegans and Drosophila TORC proteins, yet has virtually no homology or similarity to any other proteins (Tourgenko et al., 2003). […] HeLa cells are transfected with either the eGFP control or TORC1(1-44)-eGFP with either CRE-luciferase (FIG. 16, panel A) or NFKB-luciferase (panel B) prior to stimulation with 50 uM forskolin/100 uM IBMX or 5 uM ionomycin. In panel C, HEK293 cells are transiently transfected with CRE-luciferase and the β2-adrenergic receptor (β2AR) in combination with either the empty CMV vector, eGFP, or TORC1(1-44)-eGFP fusion and exposed to isoproterenol for 18 hours. […]

CRE-luciferase [4] = assay: CRE-luciferase with β2-adrenergic receptor and isoproterenol in HEK293 cells; type: cell-based; settings: HEK293 transiently transfected; isoproterenol 18 hours
Excerpt: as §4

[5] = transfected HEK293, LMB treatment
[6] = stable HEK293, 160 nM isoproterenol alone, 1 hr

Molecule: CCC(=C/[C@H](C)C/C=C/C(C)=C/[C@@H](C)C(=O)[C@@H](C)[C@H](O)[C@@H](C)C/C(C)=C/C(=O)O)/C=C/[C@@H]1OC(=O)C=C[C@@H]1C [LMB, Leptomycin B]
- induction of CRE-driven luciferase (CRE-driven luciferase; 10 nM LMB, naïve HeLa vs HeLa::TORC1-eGFP): significant induction only in the HeLa::TORC1-eGFP cells
- time until TORC2-eGFP becomes predominantly nuclear following LMB exposure (TORC2-eGFP; stable HEK293): ≤ 120 min
- translocation of TORC2-eGFP to the nucleus (TORC2-eGFP; stable HEK293): weak or no translocation to the nucleus
- nuclear accumulation of TORC2-eGFP (TORC2-eGFP; [5]): induces accumulation of both proteins in the nuclei
- time until TORC3-eGFP becomes predominantly nuclear following LMB exposure (TORC3-eGFP; stable HEK293): approximately 90 min
- translocation of TORC3-eGFP to the nucleus (TORC3-eGFP; stable HEK293): weak or no translocation to the nucleus
- nuclear accumulation of TORC3-eGFP (TORC3-eGFP; [5]): induces accumulation of both proteins in the nuclei
- translocation of TORC1-eGFP to the nucleus (TORC1-eGFP [1]): weak or no translocation to the nucleus
- TORC1-eGFP fluorescence localization (TORC1-eGFP [1]): eGFP fluorescence originating from the cytoplasm
- time to near complete TORC1 translocation following LMB exposure (TORC1-eGFP [2]; HeLa cells, data not shown): less than 30 minutes
- subcellular localization of TORC1 fusion proteins (TORC1-eGFP [2]; HeLa transfected with FLAG-TORC1 or TORC1-eGFP, 10 nM LMB, 90 min): present predominantly in the nucleus
- TORC1-eGFP translocation (nuclear-cytoplasmic fluorescence difference), positive control of cDNA screen (TORC1-eGFP [2]; HeLa, 384-well plates, Cellomics ArrayScan II): detected in virtually all control wells

Molecule: CCCCCCCCCCCCCC(=O)O[C@@H]1[C@@H](C)[C@@]2(O)[C@@H](C=C(CO)C[C@]3(O)C(=O)C(C)=C[C@@H]23)[C@@H]2C(C)(C)[C@]12OC(C)=O [PMA, Phorbol 12-myristate 13-acetate]
- activation of CRE-driven luciferase in naïve HeLa cells (CRE-driven luciferase): modest level of activation
- accumulation of TORC1-eGFP in the nucleus in response to PMA (TORC1-eGFP [2]; HeLa stable TORC1-eGFP, 10 uM PMA, 1 hour): induced TORC1-eGFP to accumulate in the nucleus

Molecule: CCCC(=O)Nc1ncnc2c1ncn2[C@@H]1O[C@@H]2COP(=O)(O)O[C@H]2[C@H]1OC(=O)CCC [db-cAMP, dibutyryl cyclic-AMP]
- translocation of dTORC-eGFP into the nucleus (dTORC-eGFP): induced translocation of dTORC-eGFP into the nucleus
- translocation of TORC1-eGFP on raising intracellular cAMP (TORC1-eGFP [2]; HeLa stable TORC1-eGFP, 50 uM forskolin and 100 uM IBMX, or 1 mM db-cAMP, 2 hours): partial translocation of TORC1-eGFP

Molecule: C[C@H](CCC(=O)O)C[C@H](C)C[C@H](C)C(=O)/C=C(\O)[C@H](C)C[C@H](C)C/C=C/[C@@H](C)[C@@H](O)[C@@H](C)[C@@H](O)C[C@@H]1CC[C@@](C)([C@H]2CC[C@@](C)([C@@H](C)O)O2)O1 [ionomycin]
- activation of CRE-driven luciferase in naïve HeLa cells (CRE-driven luciferase): modest level of activation
- translocation of TORC2-eGFP to the nucleus (TORC2-eGFP; stable HEK293): weak or no translocation to the nucleus
- translocation of dTORC-eGFP into the nucleus (dTORC-eGFP): induced translocation of dTORC-eGFP into the nucleus
- translocation of TORC3-eGFP to the nucleus (TORC3-eGFP; stable HEK293): weak or no translocation to the nucleus
- translocation of TORC1-eGFP to the nucleus (TORC1-eGFP [1]): weak or no translocation to the nucleus
- accumulation of TORC1-eGFP in the nucleus in response to calcium (TORC1-eGFP [2]; HeLa stable TORC1-eGFP, 1 uM ionomycin or 10 uM CPA, 1 hour): potently induce accumulation of the TORC1-eGFP in the nucleus

Molecule: CC(C)NCC(O)c1ccc(O)c(O)c1 (stereo not drawn) [isoproterenol, Isoproterenol]
- TORC2-eGFP fluorescence localization (TORC2-eGFP; [6]): fluorescence from the nucleus occurs
- TORC3-eGFP fluorescence localization (TORC3-eGFP; [6]): fluorescence from the nucleus occurs
- TORC1-eGFP fluorescence localization (TORC1-eGFP [1]): eGFP fluorescence originating from the cytoplasm

Molecule: T1(1-44)eGFP: dominant interfering protein fusing the 44 amino-acid CREB-binding domain of TORC1 to eGFP (MATSNNPRKFSEKIALHNQKQAEETAAFEEVMKDLSLTRAARLQ; also: fused to eGFP)
- effect on CRE activation through forskolin/IBMX or ionomycin and PMA (CRE-luciferase [3]; HeLa, 50 uM forskolin/100 uM IBMX or 5 uM ionomycin): potently blocks CRE activation
- effect on activity of all three TORCs on CRE-activation (CRE-luciferase [3]; data not shown): inhibited
- effect on enhanced CRE-response in HhTORC1 cells (CRE-luciferase [3]; data not shown): effectively blocked
- effect on activation of NF-kappaB reporter by ionomycin and PMA (NF-kappaB reporter): no effect on activation of an NF-kappaB reporter
- effect on CRE-luciferase induction by β2AR and isoproterenol (CRE-luciferase [4]): strongly inhibits CRE-luciferase induction
